Experiment: recombinant UMI read abundance after kanamycin selection (control-corrected) (log10(CPM+1)); higher = more efficient recombination; extreme values may be limits of the assay; sequences stand for … in AGTGCAGAGAAAATCGGCCAGTTTTCTCTGCCTGCAGTCCGCATGCCGTGGGACCCCTTGGGTTCTAACCTGTTGCCTAGATTTATGCAGCGGACTGCCTTTCTCCCAAAGTGATAAACCGG…AGGTTGGTTTCACT; site = the 11-nt donor
Procedure: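 Pooled E. coli donor-specificity screen for the IS621 bridge recombinase. Each library member carries a reprogrammed 11-nt donor and a full-length LE bridge RNA expressed in cis from the natural promoter, with a paired donor-binding loop (8-nt LDG + 4-nt RDG) and a target-binding loop fixed to T5. It is co-electroporated with a T5 target plasmid; recombinase is induced with 0.07 mM IPTG and recombinants are selected on kanamycin. UMIs are counted as CPM, averaged over two biological replicates and corrected by the unselected control. Molecule = full bridge RNA written as DNA, built from the T5 scaffold: LDG = donor specificity nt 1-8, RDG = reverse complement of nt 8-11.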
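Note: IS621 bridge recombinase in Escherichia coli cells against a fixed T5 target plasmid.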

Compared with “ATCGCGTCATGGACCGGTTTTCCCGGTAATCCGTATTTGAA (site ATCGCGTCTTT)”, “AATGTGTCATGGACCGGTTTTCCCGGTAATCCGTATTTGAC (site AATTTGTCTGT)” is lower in “recombinant UMI read abundance (log10)” value: 2.01 for the first, 0 for the second.

“GGTCTACCATGGACCGGTTTTCCCGGTAATCCGTATTTGCA (site GGTCTACCTTG)” and “CGGGAGGCATGGACCGGTTTTCCCGGTAATCCGTATTTGCC (site CGGGAGCCTGG)” are the same in “recombinant UMI read abundance (log10)” value: 0 for the first, 0 for the second.

Compared with “CGGAAACCATGGACCGGTTTTCCCGGTAATCCGTATTTGAT (site CGGGAACCTAT)”, “AGGACCCCATGGACCGGTTTTCCCGGTAATCCGTATTTGGT (site AGGACCCCTAC)” is higher in “recombinant UMI read abundance (log10)” value: 0 for the first, 0.297 for the second.

“TGGTGTCCATGGACCGGTTTTCCCGGTAATCCGTATTTGAG (site TGGTGTCCTCT)” and “GGAGTGGCATGGACCGGTTTTCCCGGTAATCCGTATTTGGA (site GGAGTGGCTCC)” are within 0.2 log units of each other in “recombinant UMI read abundance (log10)” value: 0.0312 for the first, 0.019 for the second.

First: ACAGTATCATGGACCGGTTTTCCCGGTAATCCGTATTTGCA (site ACTTTATCTTG)
Second: CAAGTCACATGGACCGGTTTTCCCGGTAATCCGTATTTGGG (site CAAGTCACTGC)
The “recombinant UMI read abundance (log10)” value of the first is higher: 1.44 for the first, 0 for the second.

“ACAGTATCATGGACCGGTTTTCCCGGTAATCCGTATTTGCA (site ATAGTATCTTA)” and “CTCCCTACATGGACCGGTTTTCCCGGTAATCCGTATTTGAT (site CTCCCTACTCT)” are within 0.2 log units of each other in “recombinant UMI read abundance (log10)” value: 0 for the first, 0.00726 for the second.

Going from “ATTCCGGCATGGACCGGTTTTCCCGGTAATCCGTATTTGCT (site ATTCCGGCTAG)” to “ATCCAAGCATGGACCGGTTTTCCCGGTAATCCGTATTTGGG (site ATCCAAGCTCC)”, the “recombinant UMI read abundance (log10)” value rises from 0.0043 to 0.365.

Compared with “ACAGTATCATGGACCGGTTTTCCCGGTAATCCGTATTTGCA (site ACAGCATCTTG)”, “GTAGCTGCATGGACCGGTTTTCCCGGTAATCCGTATTTGTG (site GTAGCTGCTCA)” is lower in “recombinant UMI read abundance (log10)” value: 1.64 for the first, 1.06 for the second.

“ACGGGGCCATGGACCGGTTTTCCCGGTAATCCGTATTTGCA (site ACGGGGCCTTG)” and “TTGAGGCCATGGACCGGTTTTCCCGGTAATCCGTATTTGAC (site TTGAGGCCTGT)” are the same in “recombinant UMI read abundance (log10)” value: 0 for the first, 0 for the second.

Compared with “CTCATTCCATGGACCGGTTTTCCCGGTAATCCGTATTTGCT (site CTCATTCCTAG)”, “CGCAATCCATGGACCGGTTTTCCCGGTAATCCGTATTTGTT (site CGGAATCCTAA)” is lower in “recombinant UMI read abundance (log10)” value: 0.523 for the first, 0 for the second.

“ACAAACCCATGGACCGGTTTTCCCGGTAATCCGTATTTGGG (site ACAAACCCTCC)” and “ACCTAGACATGGACCGGTTTTCCCGGTAATCCGTATTTGGG (site ATCTAGACTCC)” are within 0.2 log units of each other in “recombinant UMI read abundance (log10)” value: 0 for the first, 0.015 for the second.

Going from “CATGAGGCATGGACCGGTTTTCCCGGTAATCCGTATTTGGT (site CATGAGGCTAC)” to “CCCGACACATGGACCGGTTTTCCCGGTAATCCGTATTTGTA (site CCCAACACTTA)”, the “recombinant UMI read abundance (log10)” value falls from 1.12 to 0.221.

Going from “CGCGGAACATGGACCGGTTTTCCCGGTAATCCGTATTTGTT (site CGCGGAACTAA)” to “AATATGTCATGGACCGGTTTTCCCGGTAATCCGTATTTGAC (site AATCTGTCTGT)”, the “recombinant UMI read abundance (log10)” value falls from 2.39 to 0.

“GATTATGCATGGACCGGTTTTCCCGGTAATCCGTATTTGCT (site GATTATTCTAG)” and “CCCTAGGCATGGACCGGTTTTCCCGGTAATCCGTATTTGCC (site CCCTAGTCTGG)” are the same in “recombinant UMI read abundance (log10)” value: 0 for the first, 0 for the second.

“CTCCTACCATGGACCGGTTTTCCCGGTAATCCGTATTTGCT (site CTTCTACCTAG)” and “CGTTTGGCATGGACCGGTTTTCCCGGTAATCCGTATTTGTT (site CGTTTGGCTAC)” are within 0.2 log units of each other in “recombinant UMI read abundance (log10)” value: 0 for the first, 0.0131 for the second.

“GGATCACCATGGACCGGTTTTCCCGGTAATCCGTATTTGCT (site CGATCATCTAG)” and “TGCGGCACATGGACCGGTTTTCCCGGTAATCCGTATTTGGA (site TGCGGCACTTC)” are within 0.2 log units of each other in “recombinant UMI read abundance (log10)” value: 0 for the first, 0.0197 for the second.

Compared with “CACGGCCCATGGACCGGTTTTCCCGGTAATCCGTATTTGCT (site CACGGCCCTAT)”, “TATACACCATGGACCGGTTTTCCCGGTAATCCGTATTTGAC (site TTTACACCTGT)” is lower in “recombinant UMI read abundance (log10)” value: 0.636 for the first, 0 for the second.

Compared with “ATTGTATCATGGACCGGTTTTCCCGGTAATCCGTATTTGAG (site ATTGTATCTCT)”, “TAACCTTCATGGACCGGTTTTCCCGGTAATCCGTATTTGGT (site TACCCTTCTAC)” is lower in “recombinant UMI read abundance (log10)” value: 1.59 for the first, 0.00501 for the second.

“GATTGGACATGGACCGGTTTTCCCGGTAATCCGTATTTGAA (site GATTGGACTCT)” and “TTTCACTCATGGACCGGTTTTCCCGGTAATCCGTATTTGGT (site TTTCACTCTAC)” are within 0.2 log units of each other in “recombinant UMI read abundance (log10)” value: 0.0133 for the first, 0.00742 for the second.

“TATTATCCATGGACCGGTTTTCCCGGTAATCCGTATTTGCT (site GATTATCCTAG)” and “ACATCTACATGGACCGGTTTTCCCGGTAATCCGTATTTGTC (site ACATCTACTTA)” are within 0.2 log units of each other in “recombinant UMI read abundance (log10)” value: 0 for the first, 0.0124 for the second.

Going from “CCTGTAGCATGGACCGGTTTTCCCGGTAATCCGTATTTGAG (site CCTGTAGCTCT)” to “CCTAAAGCATGGACCGGTTTTCCCGGTAATCCGTATTTGGT (site CCTAAAGCTAG)”, the “recombinant UMI read abundance (log10)” value falls from 0.443 to 0.

“CTCCCGACATGGACCGGTTTTCCCGGTAATCCGTATTTGAG (site CTCCCCACTCT)” and “AGGTTCCCATGGACCGGTTTTCCCGGTAATCCGTATTTGTG (site ACGTTCCCTCA)” are within 0.2 log units of each other in “recombinant UMI read abundance (log10)” value: 0.00318 for the first, 0.0097 for the second.

“GCTTGCCCATGGACCGGTTTTCCCGGTAATCCGTATTTGAT (site CCTTGCCCTAT)” and “GAAGATACATGGACCGGTTTTCCCGGTAATCCGTATTTGTT (site GAAGATTCTAA)” are within 0.2 log units of each other in “recombinant UMI read abundance (log10)” value: 0.0733 for the first, 0 for the second.

“ACTACTGCATGGACCGGTTTTCCCGGTAATCCGTATTTGGT (site ACTAGTGCTAC)” and “ACTGTACCATGGACCGGTTTTCCCGGTAATCCGTATTTGCA (site ACAGTATCTTG)” are within 0.2 log units of each other in “recombinant UMI read abundance (log10)” value: 0.0166 for the first, 0.00951 for the second.

Compared with “CTAAGGCCATGGACCGGTTTTCCCGGTAATCCGTATTTGAC (site CTAAGGCCTGT)”, “GAAGTATCATGGACCGGTTTTCCCGGTAATCCGTATTTGCA (site ACAGTATCTTG)” is higher in “recombinant UMI read abundance (log10)” value: 0.577 for the first, 1.54 for the second.

“GATTATCCATGGACCGGTTTTCCCGGTAATCCGTATTTGCT (site GACTATCCTAG)” and “ACCTAGACATGGACCGGTTTTCCCGGTAATCCGTATTTGGG (site ACCTAGACTCT)” are within 0.2 log units of each other in “recombinant UMI read abundance (log10)” value: 0 for the first, 0.00788 for the second.

Compared with “AGCCTAGCATGGACCGGTTTTCCCGGTAATCCGTATTTGTT (site AGCCTAGCTAA)”, “ATCTAAACATGGACCGGTTTTCCCGGTAATCCGTATTTGAC (site ATCTACACTGT)” is higher in “recombinant UMI read abundance (log10)” value: 0.0154 for the first, 0.25 for the second.

“CTATTGTCATGGACCGGTTTTCCCGGTAATCCGTATTTGAC (site CTAGTATCTGT)” and “TAGAATACATGGACCGGTTTTCCCGGTAATCCGTATTTGGA (site TAGAATACTTA)” are within 0.2 log units of each other in “recombinant UMI read abundance (log10)” value: 0 for the first, 0.00272 for the second.

First: CACCCTACATGGACCGGTTTTCCCGGTAATCCGTATTTGGC (site CACCCTACTGC)
Second: GACCTCACATGGACCGGTTTTCCCGGTAATCCGTATTTGTA (site GACCTCACTTA)
The “recombinant UMI read abundance (log10)” value of the first is higher: 2.59 for the first, 0.0239 for the second.

“CACGGACCATGGACCGGTTTTCCCGGTAATCCGTATTTGTT (site CACGGTCCTAA)” and “GCGGCACCATGGACCGGTTTTCCCGGTAATCCGTATTTGCA (site GGGGCACCTTG)” are within 0.2 log units of each other in “recombinant UMI read abundance (log10)” value: 0 for the first, 0.008 for the second.

Compared with “ATAGTTTCATGGACCGGTTTTCCCGGTAATCCGTATTTGCA (site ATAGTTTCTTG)”, “CACTCGACATGGACCGGTTTTCCCGGTAATCCGTATTTGGG (site CACTCGACTCC)” is lower in “recombinant UMI read abundance (log10)” value: 2.47 for the first, 0.2 for the second.

Going from “AGGAGGGCATGGACCGGTTTTCCCGGTAATCCGTATTTGCC (site AGGAGGGCTGG)” to “TGGCTTACATGGACCGGTTTTCCCGGTAATCCGTATTTGGC (site TGGCTTACTGC)”, the “recombinant UMI read abundance (log10)” value falls from 2.16 to 0.536.

Going from “ATACAAGCATGGACCGGTTTTCCCGGTAATCCGTATTTGAC (site ATACAAGCTGT)” to “AATGTAACATGGACCGGTTTTCCCGGTAATCCGTATTTGCT (site AATCTAACTAG)”, the “recombinant UMI read abundance (log10)” value falls from 2.38 to 0.276.

Going from “GGTTTCACATGGACCGGTTTTCCCGGTAATCCGTATTTGTA (site GGTTTCACTTA)” to “AAATGCTCATGGACCGGTTTTCCCGGTAATCCGTATTTGAA (site TAATGCTCTTT)”, the “recombinant UMI read abundance (log10)” value rises from 0.519 to 1.17.

Compared with “ACAGTGCCATGGACCGGTTTTCCCGGTAATCCGTATTTGCA (site ACAGTATCTTG)”, “GATTATCCATGGACCGGTTTTCCCGGTAATCCGTATTTGCT (site TATTATCCTAG)” is lower in “recombinant UMI read abundance (log10)” value: 0.852 for the first, 0 for the second.

“AGGTTCCCATGGACCGGTTTTCCCGGTAATCCGTATTTGAG (site AGGTTCCCTCG)” and “CGTGGCACATGGACCGGTTTTCCCGGTAATCCGTATTTGTT (site CGTGGTACTAA)” are within 0.2 log units of each other in “recombinant UMI read abundance (log10)” value: 0.00792 for the first, 0.0209 for the second.
